From US9149535B2, “Polymers and the preparation of nanogel drug cocktails” (University of South Carolina, priority 2012, dated 2015)

System: cancer cells
Experiment: Intracellular trafficking by confocal laser scanning microscopy (CLSM)
Type: cell-based
Settings: 3 hr
Excerpt: To monitor the intracellular trafficking of nanogel, confocal laser scanning microscopy (CLSM) was employed. […] Since only about 20% DOX could be released from nanogel under the intracellular environment (FIG. 2A), the signals should mainly represent ND nanogel. […] Due to its relatively large size, it will be impossible for it to pass the nuclear pore complex, which is about 40 nm.

In the case of `COc1cccc2c1C(=O)c1c(O)c3c(c(O)c1C2=O)C[C@@](O)(C(=O)CO)C[C@@H]3O[C@H]1C[C@H](N)[C@H](O)[C@H](C)O1` [DOX, doxorubicin], the intracellular localisation is reported as “preferentially labels their nuclei”.
